From paper PMC10412585 (Nature Communications, 2023)

Columns and labels:
HLA-E = assay: Prometheus differential scanning fluorimetry of HLA-E with peptide; assay type: binding, human; conditions: refolded HLA-E*01:03/β2M 9 μg, 50x peptide to MHC ratio, high sensitivity capillary, 1 °C per minute 20-95 °C, first inflection point; DMSO control 33.8
Procedure: Differential scanning fluorimetry (DSF) experiments were performed with a Prometheus NanoTemper NT.48 (Munich, Germany) to measure protein stability, using intrinsic tryptophan fluorescence.
For these experiments, refolded empty HLA-E was generated. Human β2M plus a poly-histidine tag and HLA-E*01:03 extracellular α1, α2, and α3 domains plus an AviTag biotinylation tag were separately codon optimized for E. coli and cloned into the bacterial expression vector pET28a. Inclusion bodies for HLA-E and β2M were made in BL21 E. coli. Inclusion bodies were purified, homogenized, and dissolved, including denaturation in 8 M urea solution. Before refolding, each IB was mixed with an equal volume of Gdn-Cl solution (6 M Guanidine HCl, 500 mM Tris, 2 mM EDTA, 100 mM NaCl) and incubated overnight at 37 °C. β2M was injected dropwise with a 27-gauge needle into refolding buffer (100 mM pH 8.3 Tris, 400 mM L-arginine hydrochloride, 2 mM EDTA, 0.5 mM oxidized glutathione, 5 mM reduced glutathione, 0.2 mM PMSF) and incubated, stirring gently, at 4 °C for 1 h, after which an equal mass of HLA-E heavy chain was similarly injected. This solution incubated at 4 °C overnight, followed by two days of dialysis in 10 mM Tris + 50 mM NaCl. Protein was concentrated in 10 kDa molecular weight cutoff centrifugal concentrators and purified by size exclusion chromatography on an AKTAPURE FPLC (GE Healthcare, Chicago IL), using an S200 column followed by a S75 column.
Individual DSF reactions were set up with 9 μg of MHC and 100×, 50×, or 10× peptide to MHC ratio by molarity (peptides from GenScript). The final reaction volume was 20 μL and reaction mixtures were incubated at room temperature for 20–30 min.
Prometheus excitation power was set such that raw fluorescence counts were between 8000–15000 for each sample. Samples were heated at 1 °C per minute, from 20–95 °C. DSF measurements were taken in duplicate with high-sensitivity and standard capillaries. Melting temperatures were similar for a given peptide across conditions, and representative data from 50x ratio in high sensitivity capillary are presented. A secondary inflection point around 60 °C in most melts is consistent with melting of β2M[76]. […]
Supplemental Figure 9. Differential scanning fluorimetry data generated via Prometheus NanoTemper for predicted peptides with HLA-E. a) Raw 350/330 nm ratios and first derivative for samples. The second inflection point is consistent with β2M unfolding. b) Summary of Tm values for the first inflection point called by Prometheus software for these samples. […]

NKG2C+ NK cells = assay: NK cell activation assay with peptide-pulsed RMA-S/HLA-E cells; assay type: cell-based, human; conditions: RMA-S/HLA-E target cells, 300 µM peptide ([…] µM BFAR263-271), E:T 2:1, 6 h, flow cytometry, n = 3 (n = 2 for some) donors
Procedure: Fig. 4 NK cell stimulation assays. Assessment of effects of peptides on NK cell activity through incubation of NK cells, peptides, and (A) K562/HLA-E or (B) RMA-S/HLA-E target cells. […] Replicates for individual peptides are from different donors, with solid black lines indicating mean values. […] Representative gating for NKG2A^+/NKG2C^- and NKG2A^-/NKG2C^+ NK cells is shown in Supplemental Fig. 14. Source data are provided as a Source Data file.
In contrast to K562 cell lines which are targets for human NK cells, RMA-S cells (a TAP-deficient mouse cell line)[48] are inert to human NK cells and thus will not activate NK cells absent engagement of an activating receptor on the NK cells. […] We performed additional NK cell activation assays with RMA-S/HLA-E cells (Fig. 4B).
All analyses of human data were carried out in compliance with the relevant ethical regulations. Healthy blood donors gave informed consent at DRK Blutspendedienst Nord-Ost, Dresden, Germany, and buffy coats were obtained as approved by Charité ethics committee (EA4/059/17). PBMCs were isolated from human CMV-seropositive buffy coats by density centrifugation over Ficoll Paque Plus (GE Healthcare) and screened for the presence of NKG2C^+ NK cell expansions by flow cytometry to have sufficient frequencies of single-positive cells for parallel assessment of activation and inhibition via HLA-E[47]. Total NK cells from donors with NKG2C^+ expansions (>10% NKG2A^-/NKG2C^+ NK cells) were enriched with CD56 microbeads (Miltenyi Biotec) and cryopreserved in FBS with 10% v/v DMSO. After thawing, NK cells were washed with complete medium, stained with antibodies and Fixable Viability Dye eFluor 780 (Thermo Fisher) for 15 min at 4 °C in PBS, sorted as viable CD56^+ CD3^− cells, and rested in complete media overnight. […] Brefeldin A and Monensin (BD Biosciences) were added after a 1 h culture period. After an additional 5 h, the stimulation was stopped by centrifugation at 4 °C. Cells underwent surface staining, followed by fixation and intracellular staining using Inside Stain Kit (Miltenyi Biotec). Samples were analyzed by flow cytometry on an LSR Fortessa (BD Biosciences). Inhibition of NKG2A^+ NK cells and activation of NKG2C^+ NK cells was assessed by gating on the respective single-positive populations (Supplemental Fig. 14). Antibodies are listed in Supplemental Table 1: anti-human CD56 PE/Dazzle 594 (1:200 dilution), CD3 APC-eFluor 780 (1:50 dilution), anti-human CD159a (NKG2A) Biotin REAfinity (1:50 dilution), anti-human CD159c (NKG2C) PE REAfinity (1:100 dilution), anti-human CD107a (LAMP-1) Alexa Fluor 488 (1:400 dilution), anti-human IFN-γ PE-Vio 770 REAfinity (1:50 dilution), anti-human TNF-α Brilliant Violet 605 (1:50 dilution), anti-human CCL3 (MIP-1α) REAfinity (1:25 dilution).

Row | Sequence | Tm (HLA-E) | NKG2C-mediated NK cell activation (NKG2C+ NK cells)
1 | VMAPRTLFL [positive control] | 51.5 °C | most potent activating peptide
2 | VNPGRSLFL [BFAR263-271, human peptide from Bifunctional apoptosis regulator] | 38.5 °C | activation similar to the weaker positive control ([…]) or between the two positive controls
